Experimental data: ChEMBL document CHEMBL3886309, “Spiro compounds useful as inhibitors of stearoyl-coenzyme A delta-9 desaturase” (2015)
pIC50: −log10 of the molar value.

These compounds were tested against T1, Stearoyl-CoA desaturase (Homo sapiens, UniProt O00767) (assay: Enzyme Activity Assay: The potency of compounds of formula I against the stearoyl-CoA desaturase was determined by measuring the conversion of radiolabeled stearoyl-CoA to oleoyl-CoA using rat liver microsome or human SCD1 following previously published procedures with some modifications (Joshi, et al., J. Lipid Res., 18: 32-36 (1977); Talamo, et al., Anal. Biochem, 29: 300-304 (1969)). Liver microsome was prepared from male Wistar or Sprague Dawley rats on a high carbohydrate diet for 3 days (LabDiet #5803, Purina). The livers were homogenized (1:10 w/v) in a buffer containing 250 mM sucrose, 1 mM EDTA, 5 mM DTT and 50 mM Tris-HCl (pH 7.5). After a 100,000xg centrifugation for 60 min, the liver microsome pellet was suspended in a buffer containing 100 mM sodium phosphate, 20% glycerol, 2 mM DTT, and stored at -78° C. Human SCD1 desaturase system was reconstituted using human SCD1 from a baculovirus/Sf9 expression system, cytochrome B5 and cytochrome B5 reductase.).
T1 sequence (O00767 whole entry): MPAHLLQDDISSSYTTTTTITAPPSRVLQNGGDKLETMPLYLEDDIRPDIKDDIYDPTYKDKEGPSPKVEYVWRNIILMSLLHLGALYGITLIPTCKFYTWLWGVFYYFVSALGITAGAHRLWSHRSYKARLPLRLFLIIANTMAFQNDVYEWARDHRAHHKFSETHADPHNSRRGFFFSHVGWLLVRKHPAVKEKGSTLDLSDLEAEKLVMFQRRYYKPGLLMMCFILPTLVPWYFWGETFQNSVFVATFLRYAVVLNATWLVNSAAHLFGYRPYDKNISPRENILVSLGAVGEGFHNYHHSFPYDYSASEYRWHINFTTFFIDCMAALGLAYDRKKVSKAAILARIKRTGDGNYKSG
Format: microsomes

pIC50	Structure (SMILES)
7.92	O=C(O)Cn1nnc(-c2cnc(N3CCC4(CC3)CC(=O)c3c(Cl)cccc3O4)s2)n1
7.62	O=C(O)Cn1nnc(-c2nnc(N3CCC4(CC3)CC(=O)c3c(Cl)cccc3O4)s2)n1
7.77	O=C(O)Cn1nnc(-c2cc(N3CCC4(CC3)CC(=O)c3c(Cl)cccc3O4)no2)n1
